Assay results from patent US20220409573A1, “Hippocampus Regeneration And Memory Recovery” (INNOBIOSCIENCE, LLC, priority 2021, published 2022).

Legend:
Wnt target genes = test: PCR array of Wnt target genes in hippocampal neurons; type: cell-based, rat
Description: Primary culture of rat hippocampal neurons. […] PCR-ARRAY. RNA from hippocampal neurons was extracted using Trizol. Quantification and purity of RNA preparations were checked by absorbance using Nanodrop ND-2000. Only preparations with a 260/280 nm ratio≥1.8, a 260/230 nm ratio ≥1,7 and no sign of RNA degradations, verified by agarose gel electrophoresis with Gel Red TM were used. Genomic DNA was degraded. Using RT2First-Strand cDNA Synthesis kit (SuperArray), 1 μg total RNA was reverse transcribed and then real-time PCR was performed by adding cDNA directly to PCR Master Mix, containing SYBR Green and ROX. The mixtures were then aliquoted into a 96-well PCR array plates, which profiles the expression of 84 Wnt target genes from rat. The PCR was run on ABI StepOnePlus, with 1 cycle of 10 min at 95° C. followed by 40 cycles of 15 s at 95° C. and 1 min at 60° C.
Treatment of neuronal cultures. Primary hippocampal cultures of neurons 14 DIV were washed twice in neurobasal medium and maintained for 1 hour.

[1] = test system: CA3-CA1 connections in hippocampal slices; test: Electrophysiology in Wt hippocampal slices (fEPSP, PPF, LTP, LTD); type: cell-based, mice; conditions: hippocampal slices; 6-BIO 10 nM
Description: Slice Preparation and Electrophysiology. […] Slices were transferred to an experimental chamber (2 ml), superfused (3 ml/min, at 20-22° C.) with gassed ACSF and visualized by trans-illumination with a binocular microscope (MSZ-10, Nikon, Melville, N.Y.). To evoke field excitatory postsynaptic potentials (fEPSPs), we stimulate with bipolar concentric electrodes (Platinum/Iridium, 125 μm OD diameter, FHC Inc., Bowdoin, Me.) generated by a stimulator (Axon 700b, Molecular Devices, Sunnyvale, Calif.) and connected to an isolation unit (Isoflex, AMPI, Jerusalem, Israel) . The stimulation was in the Stratum Radiatum within 100-200 μm from the recording site. The paired pulse facilitation index was calculated by ((R2−R1)/R1), where R1 and R2 were the peak amplitudes of the first and second fEPSP respectively. To generate LTP we used Theta Burst Stimulation (TBS) consisting of 5 trains of stimulus with an inter-train interval of 20 s. Each train consisted of 10 bursts at 5 Hz and each burst having 4 pulses at 100 Hz. To generate LTD we used Low Frequency Stimulation (LFS) consisting in 900 paired pulses at 1 Hz. Recordings were filtered at 2.0-3.0 kHz, sampled at 4.0 kHz using an A/D converter, and stored with pClamp 10 (Molecular Devices). Evoked postsynaptic responses were analyzed off-line, using an analysis software (pClampfit, Molecular Devices), which allowed visual detection of events, computing only those events that exceeded and arbitrary threshold.

[2] = test system: Wnt/β-catenin pathway in hippocampal slices; test: β-catenin, GSK-3β and Dvl-3 western blot in hippocampal slices of wild-type mice; type: cell-based; conditions: for time at which total levels of β-catenin increased: 5 μM ANDRO, Wnt3a conditioned medium or 10 nM 6-BIO, up to 1 h
Description: Slice preparation. […] Transverse slices (250-300 μm) from the dorsal hippocampus were cut under oxygen-saturated cold artificial cerebrospinal fluid using a Vibroslice microtome (VSL, World Precision Instruments, Inc WPI, Sarasota, Fla.). After obtained, slices were incubated in ACSF for at least than one hour at room temperature, in order to stabilize activity.
Immunoblotting. […] Briefly, tissues were homogenized in RIPA buffer (10 mM Tris-Cl, pH 7.4, EDTA 5 mM, 1% NP-40, 1% sodium deoxycholate, and 1% SDS) supplemented with a protease inhibitor mixture (1 mM PMSF, 2 μg/mL aprotinin, 1 μg/mL pepstatin and 10 μg/mL benzamidine) and phosphatase inhibitors (25 mMNaF, 100 mM Na3VO4, 1 mM EDTA and 30 μM Na4P207) using a Potter homogenizator and then passed sequentially through different caliber syringes. […] Protein concentration was determined using the BCA Protein Assay Kit (Pierce). […] The reactions were followed by incubation with anti-mouse, anti-goat or anti-rabbit IgG peroxidase conjugated (Pierce, Rockford, Ill.) and developed using an ECL kit (Western Lightning Plus ECL, PerkinElmer).

HEK293T cells = test: TOP/FOP flash luciferase reporter assay; type: cell-based
Description: Luciferase Assay. 150,000 HEK293T cells were seeded in triplicate per condition and kept for 24 hours at 37° C. with 5% CO2. The cultures were transfected with TOPflash or FOPflash (400 ng), which are firefly-luciferase reporter DNA constructs (Milipore), using LipofectAMINE 2000 (Invitrogen). To control for transfection pRL-TK (10 ng) was included in all transfections. […] Values were normalized by the renilla value from the same well. To statistically compare treatments ANOVA was used.

[3] = 9 h treatment, of the 86 genes analyzed

## O=C1Nc2cc(Br)ccc2/C1=C1/Nc2ccccc2/C1=N\O [6-BIO, 6-bromoindirubin-3′-oxime, reference compound]
Wnt target genes
  Cdh-1 gene expression: does not
Wnt target genes; [3]
  number of Wnt target genes specifically modulated: 4 genes
  number of changed Wnt target genes shared by ANDRO and 6-BIO: 4 genes
[1]
  induction of LTD (fEPSP slope after LFS): complete inhibition of the induction of LTD
[2]
  time at which total levels of β-catenin increased: 15 min
[2]; compared to Wnt-3a treatment
  rate of increase of GSK3β Ser-9 and decrease of Tyr-216 phosphorylation: faster
HEK293T cells; ANDRO 10 μM or 6-BIO 10 nM, 24 h
  TOPflash reporter activity: significant increase
HEK293T cells; TOPflash, HEK293T
  increase of luciferase reporter over control: ~6 fold

## Wnt-3a
[2]
  time at which total levels of β-catenin increased: 45 min
[2]; antagonists 15 min before 5 μM ANDRO or Wnt3a conditioned medium for 1 h
  inhibition of β-catenin accumulation by Wnt antagonists sFRP and Dkk-1: able to inhibit the accumulation of β-catenin in the presence of Wnt3a
